This is an account of results in US20240270736A1, “MACROCYCLIC HETEROCYCLES AND USES THEREOF” (Kumquat Biosciences Inc., priority 2022, published 2024).

What all share (assay type): binding
One test has as its target T1, KRAS G12V (Homo sapiens, UniProt P01116, G12V).
T1 construct: made in house; host or cells: E. coli, e.g. BL21 (DE3)
The test is described as follows: HTRF assay, interaction of KRAS G12V with SOS1. The conditions noted are these: Ras::SOS1 interaction, read-out: Inhibition of KRAS G12V (IC50). An excerpt:
(§1) This assay can be also used to assess a selective inhibition or reduction of signaling output of a mutant Ras protein relative to a wildtype, or relative to a different mutant Ras protein. For example, the equilibrium interaction of wildtype Kras or K-Ras mutant (e.g., wildtype or a mutant thereof) with SOS1 (e.g., hSOS1) can be assessed as a proxy or an indication for a subject compound's ability to bind and inhibit Ras protein. The HTRF assay detects from (i) a fluorescence resonance energy transfer (FRET) donor (e.g., antiGST-Europium) that is bound to GST-tagged K-Ras mutant to (ii) a FRET acceptor (e.g., anti-6His-XL665) bound to a His-tagged hSOS1.
(§2) The assay buffer can contain ˜5 mM HEPES pH 7.4, ˜150 mM NaCl, ˜ 1 mM DTT, 0.05% BSA and 0.0025% (v/v) Igepal. A Ras working solution is prepared in an assay buffer containing typically a suitable amount of the protein construct (e.g., GST-tagged K-Ras mutant) and the FRET donor (e.g., antiGST-Eu(K) from Cisbio, France). A SOS1 working solution is prepared in an assay buffer containing suitable amount of the protein construct (e.g., His-hSOS1) and the FRET acceptor (e.g., anti-6His-XL665 from Cisbio, France). A suitable amount of the protein construct will depend on the range of activity or range of IC50 values being detected or under investigation. For detecting an IC50 within a range of 500 nM, the protein constructs of the same range of molarity can be utilized.
(§3) A fixed volume of DMSO with or without test compound is transferred into a 384-well plate. Ras working solution is added to all wells of the test plate. SOS1 working solution is added to all wells except for those that are subsequently filled with inhibitor control solution. Upon incubation for about 10 minutes or longer, the fluorescence is measured with a M1000Pro plate reader (Tecan) using HTRF detection (excitation 337 nm, emission 1: 620 nm, emission 2: 665 nm). Compounds are tested in duplicate at different concentrations (for example, 10 μM, 2.5 μM, 0.63 μM, 0.16 μM, 0.04 μM, 0.01 μM test compound). The ratiometric data (i.e., emission 2 divided by emission 1) is used to calculate IC50 values against Ras using GraphPad Prism (GraphPad software). Signaling output measured in terms of IC50 values can be obtained and a ratio of IC50 against one mutant relative to another mutant can be calculated. For instance, a selective reduction of K-Ras G12D signaling output can be evidenced by a ratio greater than one. In particular, a selective reduction of K-Ras G12D signaling relative to K-Ras WT signaling is evidenced if the ratio of IC50 (against K-Ras WT) to IC50 (against K-Ras G12D) is greater than 1.
In general terms: Time-resolved FRET reads energy transfer from a long-lived donor to a nearby acceptor.

The target of the next test is T2, KRAS G12D (Homo sapiens, UniProt P01116, G12D).
T2 construct: made in house; host or cells: E. coli, e.g. BL21 (DE3)
The experiment in a line: HTRF assay, interaction of KRAS G12D with SOS1. The note with it: Ras::SOS1 interaction, read-out: Inhibition of KRAS G12D (IC50).
Excerpt: as §1, §2, §3

A further test has as its target T3, wildtype KRAS (Homo sapiens, UniProt P01116).
T3 construct: made in house; host or cells: E. coli, e.g. BL21 (DE3)
The test is described as follows: HTRF assay, interaction of wildtype KRAS with SOS1. The note with it: Ras::SOS1 interaction, read-out: Inhibition of KRAS WT (IC50).
Excerpt: as §1, §2, §3

T1 sequence (P01116 1-188 isoform P01116-2 G12V): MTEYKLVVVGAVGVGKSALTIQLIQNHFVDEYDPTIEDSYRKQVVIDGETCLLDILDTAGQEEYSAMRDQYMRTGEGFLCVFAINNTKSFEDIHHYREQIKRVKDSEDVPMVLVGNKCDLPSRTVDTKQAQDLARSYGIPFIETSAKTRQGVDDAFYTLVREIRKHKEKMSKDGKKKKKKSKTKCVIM
T2 sequence (P01116 1-188 isoform P01116-2 G12D): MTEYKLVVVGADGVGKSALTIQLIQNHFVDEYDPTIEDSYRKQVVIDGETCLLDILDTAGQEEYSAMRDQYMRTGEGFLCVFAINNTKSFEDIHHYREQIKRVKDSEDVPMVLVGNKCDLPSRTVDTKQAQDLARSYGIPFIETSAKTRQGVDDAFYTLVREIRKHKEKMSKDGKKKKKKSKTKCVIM
T3 sequence (P01116 1-188 isoform P01116-2): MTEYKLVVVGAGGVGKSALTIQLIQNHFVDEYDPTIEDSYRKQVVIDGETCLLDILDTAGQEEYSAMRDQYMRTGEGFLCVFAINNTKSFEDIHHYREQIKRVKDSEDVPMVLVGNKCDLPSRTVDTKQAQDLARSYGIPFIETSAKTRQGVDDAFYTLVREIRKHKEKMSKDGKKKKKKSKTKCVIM

Regarding `CN1CCC[C@H]1C1CCCCCCN2CCOc3c(Cl)c(-c4ccc(F)c5sc(N)c(C#N)c45)c(F)c4nc(nc2c34)O1` (stereo partly drawn) [Compound 138, 2-amino-4-(15-chloro-17-fluoro-4-((S)-1-methylpyrrolidin-2-yl)-5,6,7,8,9,10,12,13-octahydro-4H-2,18-(azeno)benzo[6,7][1,4]oxazepino[5,4-d][1]oxa[3,5]diazacyclododecin-16-yl)-7-fluorobenzo[b]thiophene-3-carbonitrile], the IC50 at KRAS G12V, on KRAS G12D and on wildtype KRAS was not above 5 µM each time.

As to `CN(C)CC1CC=CCCN2c3nc(nc4c(F)c(-c5ccc(F)c6sc(N)c(C#N)c56)c(Cl)c(c34)OC[C@@H]2C(F)F)O1` (stereo partly drawn) [Compound 115, 2-amino-4-((11R)-14-chloro-11-(difluoromethyl)-4-((dimethylamino)methyl)-16-fluoro-4,5,8,9,11,12-hexahydro-2,17-(azeno)benzo[6,7][1,4]oxazepino[5,4-d][1]oxa[3,5]diazacycloundecin-15-y1)-7-fluorobenzo[b]thiophene-3-carbonitrile], on KRAS G12V, the concentration for half-maximal inhibition (IC50) (as a rule, the concentration needed to halve the response being measured) was not above 5 µM.

In the case of `CNCC1CCCCCN2CCOc3c(Cl)c(-c4ccc(F)c5sc(N)c(C#N)c45)c(F)c4nc(nc2c34)O1` (stereo not shown) [Compound 133, 2-amino-4-(14-chloro-16-fluoro-4-((methylamino)methyl)-4,5,6,7,8,9,11,12-octahydro-2,17-(azeno)benzo[6,7][1,4]oxazepino[5,4-d][1]oxa[3,5]diazacycloundecin-15-yl)-7-fluorobenzo[b]thiophene-3-carbonitrile], the IC50 on KRAS G12V, at KRAS G12D and at wildtype KRAS was not above 5 µM throughout.

Regarding `CN(C)CC1CCCCCCN2CCOc3c(Cl)c(-c4ccc(F)c5sc(N)c(C#N)c45)c(F)c4nc(nc2c34)O1` (stereo not shown) [Compound 117, 2-amino-4-(15-chloro-4-((dimethylamino)methyl)-17-fluoro-5,6,7,8,9,10,12,13-octahydro-4H-2,18-(azeno)benzo[6,7][1,4]oxazepino[5,4-d][1]oxa[3,5]diazacyclododecin-16-yl)-7-fluorobenzo[b]thiophene-3-carbonitrile], the half-inhibitory concentration (IC50) on KRAS G12V, on KRAS G12D and at wildtype KRAS was not above 5 µM each time.

For `CN1C[C@@H]2C[C@H]1COc1nc3c4c(c(Cl)c(-c5ccc(F)c6sc(N)c(C#N)c56)c(F)c4n1)OCCN3CCCO2` (single isomer, unassigned) [Compound 135], the IC50 at KRAS G12V, on KRAS G12D and at wildtype KRAS was not above 5 µM each time.

As for `CN(C)C[C@H]1CCNC(=O)CCN2CCOc3c(Cl)c(-c4ccc(F)c5sc(N)c(C#N)c45)c(F)c4nc(nc2c34)O1` [Compound 123, 2-amino-4-((4R)-15-chloro-4-((dimethylamino)methyl)-17-fluoro-8-oxo-5,6,7,8,9,10,12,13-octahydro-4H-2,18-(azeno)benzo[6,7][1,4]oxazepino[5,4-d][1]oxa[3,5,9]triazacyclododecin-16-yl)-7-fluorobenzo[b]thiophene-3-carbonitrile], the IC50 on KRAS G12V, at KRAS G12D and at wildtype KRAS was not above 5 µM throughout.

As for `CN(C)CC1CC=CCCN2c3nc(nc4c(F)c(-c5ccc(F)c6sc(N)c(C#N)c56)c(Cl)c(c34)OC[C@@H]2C(F)F)O1` (mixture of isomers) [Compound 107, 2-amino-4-((11R)-14-chloro-11-(difluoromethyl)-4-((dimethylamino)methyl)-16-fluoro-4,5,8,9,11,12-hexahydro-2,17-(azeno)benzo[6,7][1,4]oxazepino[5,4-d][1]oxa[3,5]diazacycloundecin-15-yl)-7-fluorobenzo[b]thiophene-3-carbonitrile], the IC50 on KRAS G12D and at wildtype KRAS was not above 5 µM each time.

For `CN1CCCOc2nc3c4c(c(Cl)c(-c5ccc(F)c6sc(N)c(C#N)c56)c(F)c4n2)OCCN3CCC1` [Compound 143, 2-amino-4-(15-chloro-17-fluoro-7-methyl-5,6,7,8,9,10,12,13-octahydro-4H-2,18-(azeno)benzo[6,7][1,4]oxazepino[5,4-d][1]oxa[3,5,9]triazacyclododecin-16-yl)-7-fluorobenzo[b]thiophene-3-carbonitrile], the half-maximal inhibitory concentration (IC50) on KRAS G12V, on KRAS G12D and on wildtype KRAS was not above 5 µM throughout.

Turning to `CN(C)CC1CCCCCN2c3nc(nc4c(F)c(-c5ccc(F)c6sc(N)c(C#N)c56)c(Cl)c(c34)OC[C@@H]2C(F)F)O1` (stereo partly drawn) [Compound 156, 2-amino-4-((11R)-14-chloro-11-(difluoromethyl)-4-((dimethylamino)methyl)-16-fluoro-4,5,6,7,8,9,11,12-octahydro-2,17-(azeno)benzo[6,7][1,4]oxazepino[5,4-d][1]oxa[3,5]diazacycloundecin-15-yl)-7-fluorobenzo[b]thiophene-3-carbonitrile], the IC50 on KRAS G12V, on KRAS G12D and on wildtype KRAS was not above 5 µM each time.

As for `C[C@H]1COc2c(Cl)c(-c3ccc(F)c4sc(N)c(C#N)c34)c(F)c3nc4nc(c23)N1CCC=CCC(CN(C)C)O4` (mixture of isomers) [Compound 150, 2-amino-4-((11S)-14-chloro-4-((dimethylamino)methyl)-16-fluoro-11-methyl-4,5,8,9,11,12-hexahydro-2,17-(azeno)benzo[6,7][1,4]oxazepino[5,4-d][1]oxa[3,5]diazacycloundecin-15-yl)-7-fluorobenzo[b]thiophene-3-carbonitrile], the half-maximal inhibitory concentration (IC50) at KRAS G12V, at KRAS G12D and on wildtype KRAS was not above 5 µM throughout.

With `CN(C)CC1CNC(=O)CCN2CCOc3c(Cl)c(-c4ccc(F)c5sc(N)c(C#N)c45)c(F)c4nc(nc2c34)O1` (stereo not shown) [Compound 128, 2-amino-4-(14-chloro-4-((dimethylamino)methyl)-16-fluoro-7-oxo-4,5,6,7,8,9,11,12-octahydro-2,17-(azeno)benzo[6,7][1,4]oxazepino[5,4-d][1]oxa[3,5,9]triazacycloundecin-15-yl)-7-fluorobenzo[b]thiophene-3-carbonitrile], the IC50 at KRAS G12V, on KRAS G12D and at wildtype KRAS was not above 5 µM throughout.

For `CN1CCCCCCN2CCOc3c(Cl)c(-c4ccc(F)c5sc(N)c(C#N)c45)c(F)c4nc(nc2c34)OCCC1` [Compound 153, 2-amino-4-(18-chloro-20-fluoro-7-methyl-4,5,6,7,8,9,10,11,12,13,15,16-dodecahydro-2,21-(azeno)benzo[6,7][1,4]oxazepino[5,4-d][1]oxa[3,5,12]triazacyclopentadecin-19-yl)-7-fluorobenzo[b]thiophene-3-carbonitrile], the IC50 on KRAS G12V, at KRAS G12D and at wildtype KRAS was not above 5 µM throughout.

Take `CN1CCC[C@H]1[C@@H]1CC/C=C\CCN2CCOc3c(Cl)c(-c4ccc(F)c5sc(N)c(C#N)c45)c(F)c4nc(nc2c34)O1` [Compound 159, 2-amino-4-((4S,Z)-15-chloro-17-fluoro-4-((S)-1-methylpyrrolidin-2-yl)-5,6,9,10,12,13-hexahydro-4H-2,18-(azeno)benzo[6,7][1,4]oxazepino[5,4-d][1]oxa[3,5]diazacyclododecin-16-yl)-7-fluorobenzo[b]thiophene-3-carbonitrile]: the half-inhibitory concentration (IC50) on KRAS G12V, at KRAS G12D and at wildtype KRAS was not above 5 µM each time.

For the compound `CN1CCCCOc2nc3c4c(c(Cl)c(-c5ccc(F)c6sc(N)c(C#N)c56)c(F)c4n2)OCCN3CCCC1` [Compound 113, 2-amino-4-(17-chloro-19-fluoro-8-methyl-5,6,7,8,9,10,11,12,14,15-decahydro-4H-2,20-(azeno)benzo[6,7][1,4]oxazepino[5,4-d][1]oxa[3,5,10]triazacyclotetradecin-18-yl)-7-fluorobenzo[b]thiophene-3-carbonitrile], at KRAS G12V, the concentration for half-maximal inhibition (IC50) is not above 5 µM.
